Assay results taken from patent publication US9918988B2, “Ammonium derivatives for the treatment of hepatitis C” (priority 2013, dated 2018).
Like-named read-outs stand apart in the source and are kept apart here.

System: HCV pseudoparticles (genotype 1a HCV E1 and E2 envelope, H77C isolate)
Assay: HCV pseudoparticle infection assay (genotype 1a, luciferase reporter, Huh7 cells)
Format: cell-based
Conditions: Hepatitis C virus, Huh-7, 48 h, read-out: EC50 (1a, nM), HCV genotype 1a pseudoparticles, Huh7 cells, luciferase 2 days after infection

Q: How did the EC50 (class symbol) turn out when C[N+](C)(C)CCNC(=O)c1ccc(Nc2nc(NC3(c4ccc(Cl)cc4)CC3)nc(OCC(F)(F)F)n2)cc1 [Compound 1001, 2-(4-(4-(1-(4-chlorophenyl)cyclopropylamino)-6-(2,2,2-trifluoroethoxy)-1,3,5-triazin-2-ylamino)benzamido)-N,N,N-trimethylethanaminium] was run?
A: 0.01 to 10 nM

Q: With [2H]C([2H])(Oc1nc(Nc2ccc(C(=O)NCC[N+](C)(C)C)cc2)nc(NC2(c3ccc(Cl)cc3)CC2)n1)C(F)(F)F [Compound 1002, 2-(4-(4-(1-(4-chlorophenyl)cyclopropylamino)-6-(2,2,2-trifluoroethoxy-D2)-1,3,5-triazin-2-ylamino)benzamido)-N,N,N-trimethylethanaminium] as the compound, how does the EC50 (class symbol) read?
A: 0.01 to 10 nM

Q: Which results are given for C[N+](C)(C)CC(=O)NNC(=O)c1ccc(Nc2nc(NC3(c4ccc(Cl)cc4)CC3)nc(OCC(F)(F)F)n2)cc1 [Compound 1003, 2-(2-(4-(4-(1-(4-chlorophenyl)cyclopropylamino)-6-(2,2,2-trifluoroethoxy)-1,3,5-triazin-2-ylamino)benzoyl)hydrazinyl)-N,N,N-trimethyl-2-oxoethanaminium]?
A: EC50 (class symbol): 10 to 1000 nM; EC50 (numeric value): 64.1 nM

Q: With C[N+](C)(C)CCCNC(=O)c1ccc(Nc2nc(NC3(c4ccc(Cl)cc4)CC3)nc(OCC(F)(F)F)n2)cc1 [Compound 1004, 3-(4-(4-(1-(4-chlorophenyl)cyclopropylamino)-6-(2,2,2-trifluoroethoxy)-1,3,5-triazin-2-ylamino)benzamido)-N,N,N-trimethylpropan-1-aminium] as the compound, how does the EC50 (class symbol) read?
A: 0.01 to 10 nM

Q: C[N+](C)(C)CCCC[C@H](NC(=O)c1ccc(Nc2nc(NC3(c4ccc(Cl)cc4)CC3)nc(OCC(F)(F)F)n2)cc1)C(=O)O [Compound 1005, (S)-5-carboxy-5-(4-(4-(1-(4-chlorophenyl)cyclopropylamino)-6-(2,2,2-trifluoroethoxy)-1,3,5-triazin-2-ylamino)benzamido)-N,N,N-trimethylpentan-1-aminium] was tested. Which EC50 (class symbol) did it give?
A: 0.01 to 10 nM

Q: Which results are given for CC(C)(CNC(=O)c1ccc(Nc2nc(NC3(c4ccc(Cl)cc4)CC3)nc(OCC(F)(F)F)n2)cc1)C[N+](C)(C)C [Compound 1006, 3-(4-(4-(1-(4-chlorophenyl)cyclopropylamino)-6-(2,2,2-trifluoroethoxy)-1,3,5-triazin-2-ylamino)benzamido)-N,N,N,2,2-pentamethylpropan-1-aminium]?
A: EC50 (class symbol): 0.01 to 10 nM; EC50 (numeric value): 0.115 nM

Q: Which EC50 (class symbol) does the source give for C[N+](C)(C)CCNC(=O)c1ccc2cc1OCCCCCCCCOc1ccc(cc1)CNc1nc(nc(OCC(F)(F)F)n1)N2 [Compound 2001] here?
A: 0.01 to 10 nM

Q: With C[N+](C)(C)CCNC(=O)c1ccc2cc1OCCCCCCOc1ccc(cc1)CNc1nc(nc(OCC(F)(F)F)n1)N2 [Compound 3001] as the compound, how does the EC50 (class symbol) read?
A: 0.01 to 10 nM

Q: With C[N+](C)(C)CCCNC(=O)c1ccc2cc1OCCCCCCOc1ccc(cc1)CNc1nc(nc(OCC(F)(F)F)n1)N2 [Compound 3002] as the compound, how does the EC50 (class symbol) read?
A: 10 to 1000 nM

Q: What does the source list for CC(C)(CNC(=O)c1ccc2cc1OCCCCCCOc1ccc(cc1)CNc1nc(nc(OCC(F)(F)F)n1)N2)C[N+](C)(C)C [Compound 3003]?
A: EC50 (class symbol): 0.01 to 10 nM; EC50 (numeric value): 7.51 nM

Q: With C[N+](C)(C)CCNC(=O)c1ccc2cc1OCCOCCOCCOc1ccc(cc1)CNc1nc(nc(OCC(F)(F)F)n1)N2 [Compound 4001] as the compound, how does the EC50 (class symbol) read?
A: 0.01 to 10 nM
